Assay results taken from US20200270588A1, “GLUCOSYL TRANSFERASE POLYPEPTIDES AND METHODS OF USE” (Syngenta Participations AG, priority 2017, published 2020).

What was measured:
Type in all cases: biochemical
[1] = biological target: T1, Zea mays bx9 glucosyl transferase (C-terminally his tagged SEQ ID NO: 1) (Zea mays, UniProt B4G072); assay: UDP-Glo glucosyl transferase assay, purified enzyme; settings: for Activity: herbicide mM: V 0.300, VI 0.250, VII 0.210, IV, VIII, XI, XXI, XX, XVIII, XVI, XV, XIV 0.200, others 1.000
T1 construct: His tag (C); made in house; host or cells: E. coli BL21 (DE3), pET24a
T1 sequence (B4G072 1-462): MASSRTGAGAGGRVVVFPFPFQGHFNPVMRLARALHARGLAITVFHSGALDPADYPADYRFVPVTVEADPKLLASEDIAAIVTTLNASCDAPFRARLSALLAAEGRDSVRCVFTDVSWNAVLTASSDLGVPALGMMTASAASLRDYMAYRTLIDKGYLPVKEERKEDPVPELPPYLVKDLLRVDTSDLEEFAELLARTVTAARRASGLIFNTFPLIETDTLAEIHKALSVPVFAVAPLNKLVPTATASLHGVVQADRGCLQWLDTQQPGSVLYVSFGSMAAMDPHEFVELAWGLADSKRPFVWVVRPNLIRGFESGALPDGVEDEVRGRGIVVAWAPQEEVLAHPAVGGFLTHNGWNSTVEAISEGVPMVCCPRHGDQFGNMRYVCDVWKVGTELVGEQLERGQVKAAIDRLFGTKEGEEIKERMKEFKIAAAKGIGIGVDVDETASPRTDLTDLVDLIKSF
Protocol: (§1) Glucosyl transferase activity is assayed via measurement of acceptor substrate-dependent production of UDP from ultrapure UDP-glucose using the Promega UDP-Glo™ method and according to the manufacturer's instructions. Assays are run in 96 well microtiter plates.
(§2) Enzyme, typically at a stock concentration of ˜2 mg/ml is diluted to an appropriate concentration in 50 mM K^+ Hepes buffer at pH7.5 containing 0.5 mg/mL bovine serum albumin (BSA) and 5 ul aliquots of this diluted enzyme added to each well of a Perkin Elmer white ½ area 96 well plate. […] Assays are run for an appropriate time (usually 10 to 60 min) so that the amount of UDP formed lies within the most nearly linear part of the UDP standard curve and are stopped with the addition and mixing of 25 ul UDP-Glo™ detection reagent (prepared as described below). Plates are then incubated at room temperature for 60 minutes and then read in a luminescence plate reader (Perkin Elmer Envision 2130 Multilabel Reader). A UDP standard curve is run alongside each set of assays and reagent blank control assays run with DMSO in place of test herbicide. Typically, 300 pmol of UDP corresponds to a Relative Luminescence Unit (RLU) reading of about 1.5E7 and the response curve between 0 and 600 pmol is fitted to a polynomial function (see for example FIG. 2).
(§3) The UDP-Glo™ reagents are made up and used according to the manufacturer's instructions. Thus, Nucleotide Detection Buffer and ATP are combined to make nucleotide detection reagent (NDR) dispensed into aliquots and frozen to be freshly thawed before use.
(§4) Km and kcat values in respect of UDP-glucose are derived by carrying out experiments to measure initial rates over a suitable range of concentrations of UDP glucose out at a fixed near saturating concentration of acceptor substrate. Best fit values of kcat, Km and kcat/Km are obtained by direct fitting of the data to the Michaelis-Menten equation using Graphpad Prism™ software.

[2] = biological target: T2, SEQ ID NO 17, zmBX9 S117V, M279F, A334K mutant (Zea mays, UniProt B4G072, A334K/M279F/S117V); assay: as above; settings: herbicide mM: V 0.300, VI 0.250, VII 0.210; IV, VIII, XI, XXI, XX, XVIII, XVI, XV, XIV 0.200; others 1.000
T2 construct: polypeptides were the C-terminally his-tagged; His tag (C); made in house
Protocol: as §1, §2, §3, §4
(§5) Variants of C-terminally his tagged SEQ ID No:1 (w/t bx9 from Zea mays), exemplified as SEQ ID 16-30, were cloned, purified and assayed as described in Example 1. FIG. 4 depicts the data from some experiments to determine the kinetic parameters of some of these variants in respect of herbicide VI and table 12 summarizes the estimates of kinetic parameters obtained from further such experiments in respect of a range of herbicides.
(§6) Table 13 summarizes the results obtained from assays, run as described in Example 1, using a variety of alcohol and aminal PSII herbicides as substrates of the Zea mays bx9 w/t (i.e. C-terminally his tagged SEQ ID no 1) and various mutants of the same, selected from SEQ ID NO: 16-30). All of these proteins were C-terminally his-tagged, expressed and purified as described in Example 1. Assays were run and analyzed as described in example 1. It is seen that various of the mutations herein and combinations thereof led to significant improvements (over the w/t bx9 protein) in catalytic activity versus various of the herbicides and that these improvements are often of sufficient magnitude to be useful for conferring improved herbicide tolerance upon crop. This is especially the case given that even the unmutated w/t bx9 enzyme which has only modest glucosyl transferase activity (for example against compounds V and VI) was nevertheless adequately active to confer significant herbicide tolerance in the glass house (as shown in example 9) even without mutational improvement. It is also seen that particular mutations can lead to very much improved activity in respect of some chemistries but not to others but that, overall, there is at least one variant within the scope of the current invention that provides significant and useful improvement in tolerance to each of the chemistries tested.

[3] = biological target: T3, SEQ ID NO 21, mutant of Zea mays bx9 glucosyl transferase (Zea mays, UniProt B4G072, A334K/F21Y/L194V/M279F/S117V); assay: as above; settings: lower block, concentration printed only in upper block: V 0.300, VII 0.210; IV, VIII, XI, XXI, XX, XVIII, XVI, XV, XIV 0.200; others 1.000 mM
T3 construct: His tag (C); made in house
Protocol: as §1, §2, §3, §4, §5, §6

[4] = biological target: T4, SEQ ID NO 22, mutant of Zea mays bx9 glucosyl transferase (Zea mays, UniProt B4G072, A334K/F21Y/M279F/S117V/T220P); assay: as above; settings: lower block, concentration printed only in upper block: V 0.300, VII 0.210; IV, VIII, XI, XXI, XX, XVIII, XVI, XV, XIV 0.200; others 1.000 mM
T4 construct: His tag (C); made in house
Protocol: as §1, §2, §3, §4, §5, §6

[5] = biological target: T5, SEQ ID NO 18, mutant of Zea mays bx9 glucosyl transferase (Zea mays, UniProt B4G072, A281K/A334K/F21Y/M279F/S117V); assay: as above; settings: herbicide mM: V 0.300, VI 0.250, VII 0.210; IV, VIII, XI, XXI, XX, XVIII, XVI, XV, XIV 0.200; others 1.000
T5 construct: His tag (C); made in house
Protocol: as §1, §2
(§7) The UDP-Glo™ reagents are made up and used according to the manufacturer's instructions. Thus, Nucleotide Detection Buffer and ATP are combined to make nucleotide detection reagent (NDR) dispensed into aliquots and frozen to be freshly thawed before use. […]
as §6

[6] = biological target: T6, SEQ ID NO 19, mutant of Zea mays bx9 glucosyl transferase (Zea mays, UniProt B4G072, A281K/A334K/L194V/M279F/S117V); assay: as above; settings: herbicide mM: V 0.300, VI 0.250, VII 0.210; IV, VIII, XI, XXI, XX, XVIII, XVI, XV, XIV 0.200; others 1.000
T6 construct: His tag (C); made in house
Protocol: as §1, §2, §7, §6

[7] = biological target: T7, SEQ ID NO 23, mutant of Zea mays bx9 glucosyl transferase (Zea mays, UniProt B4G072, A334K/F21Y/L194C/M279F/S117V); assay: as above; settings: lower block, concentration printed only in upper block: V 0.300, VII 0.210; IV, VIII, XI, XXI, XX, XVIII, XVI, XV, XIV 0.200; others 1.000 mM
T7 construct: His tag (C); made in house
Protocol: as §1, §2, §7, §6

[8] = biological target: T8, SEQ ID NO 20, mutant of Zea mays bx9 glucosyl transferase (Zea mays, UniProt B4G072, A281K/A334K/F21Y/L194V/M279F/S117V); settings: lower block, concentration printed only in upper block: V 0.300, VII 0.210; IV, VIII, XI, XXI, XX, XVIII, XVI, XV, XIV 0.200; others 1.000 mM
T8 construct: His tag (C); made in house
Protocol: as §1
as §2, with “herbicide.” for “herbicide. Typically, 300 pmol of UDP corresponds to a Relative Luminescence Unit (RLU) reading of about 1.5E7 and the response curve between 0 and 600 pmol is fitted to a polynomial function (see for example FIG. 2).”
as §3, §4
All of these proteins were C-terminally his-tagged, expressed and purified as described in Example 1. Assays were run and analyzed as described in example 1.

| Structure (SMILES) | Activity [1] [pmol/sec/pmol enzyme] | Activity [2] [pmol/sec/pmol enzyme] | Activity [3] [pmol/sec/pmol enzyme] | Activity [4] [pmol/sec/pmol enzyme] | Activity [5] [pmol/sec/pmol enzyme] | Activity [6] [pmol/sec/pmol enzyme] | Activity [7] [pmol/sec/pmol enzyme] | Activity [8] [pmol/sec/pmol enzyme] | kcat ([1]; 0.5 mM UDP-glucose, 25 C, pH 7.5, DMSO reagent blank as control) [s⁻¹] |
| --- | --- | --- | --- | --- | --- | --- | --- | --- | --- |
| CN1CC(O)N(c2cc(C(F)(F)F)ncn2)C1=O (stereo not shown) [XXV] | 0.000 | 0.106 | 0.170 | 0.458 | 0.553 | 0.581 | 0.449 | 0.758 | – |
| C[C@H]1C(=O)N(c2noc(C(C)(C)C)c2C#N)C(O)[C@@H]1C (stereo partly shown) [XXIII] | −0.003 | 0.014 | 0.034 | 0.067 | 0.089 | 0.072 | 0.021 | 0.119 | – |
| Cc1cnc(N2C(=O)N(C)C(C)C2O)cc1C(F)(F)F (stereo not shown) [XX] | −0.001 | 0.244 | 0.338 | 0.563 | 0.751 | 0.662 | 0.249 | 0.698 | – |
| C[C@H]1C(O)N(c2cc(C(F)(F)F)ccn2)C(=O)N1C (stereo partly shown) [XXIV] | 0.001 | 0.528 | 1.154 | 0.908 | 0.982 | 1.358 | 0.816 | 1.462 | – |
| C[C@@H]1C(O)N(c2cc(C(C)(C)C)on2)C(=O)[C@@H]1C (stereo partly shown) [VIII] | −0.002 | 0.008 | 0.016 | 0.061 | 0.124 | 0.077 | 0.017 | 0.145 | – |
| CC1C(=O)N(c2cc(C(F)(F)F)n(C)n2)C(O)[C@@H]1C (stereo partly shown) [XVII] | −0.001 | 0.083 | 0.195 | 0.134 | 0.237 | 0.331 | 0.096 | 0.402 | – |
| CON1C(=O)N(c2cc(C(F)(F)F)c(Cl)cn2)C(O)C1C (stereo not shown) [XXI] | 0.000 | 0.919 | 1.827 | 1.714 | 1.524 | 1.534 | 1.746 | 1.457 | 0.0001 |
| CN1CC(O)N(c2cc(C(C)(C)C)c(Cl)nn2)C1=O (stereo not shown) [III] | 0.001 | 0.032 | 0.020 | 0.144 | 0.170 | 0.097 | 0.066 | 0.144 | – |
| C[C@@H]1C(O)N(c2noc(C(C)(C)C)c2C#N)C(=O)[C@@H]1C (stereo partly shown) [XIII] | −0.001 | 0.020 | 0.040 | 0.073 | 0.051 | 0.095 | 0.034 | 0.143 | – |
